Patent publication US10842151B2, “Small molecule compound for enhancing plant stress resistance” (SHANGHAI INSTITUTES FOR BIOLOGICAL SCIENCES, CHINESE …, priority 2015, dated 2020)

Assays:
[1] = test system: soybean GmPYL3 and GmPYL6 + Arabidopsis AtHAB1; experiment: AlphaScreen experiment with soybean GmPYL receptors; assay type: binding; conditions: FIG. 9
Description: After incubating for 1.5 hours at room temperature in the dark, it was placed into an Envision Plate Reader (available from Perkin Elmer) under the programmed AlphaScreen procedure for readings.

soybean Williams 82 = experiment: Soybean leaf transpiration experiment (thermal imaging); assay type: in vivo; conditions: 50 μM sprayed, 0.2 μmol per plant; after three days; vs DMSO
Description: After three weeks of continuous watering, 0.05% tween-20 and corresponding concentrations of DMSO (control)/compound (+)-ABA/0918/1127 were sprayed onto the plants in a single administration with an amount of 1.2 ml/pot. Images were taken daily using the FLIR A655sc thermal imaging camera at the same time before and after spraying. The Williams 82 ecotype was used in soybean leaf transpiration experiments for compounds 0604c, 0918 and 1127 and was long-day cultured at 26° C. After the plants grew and had 3 leaves in each of 3 groups, 0.05% tween-20 and 50 μM DMSO (control)/(+)-ABA/0604c/0918/1127 compounds were sprayed in a single administration with an amount of 4 ml/pot. Images were taken daily using the FLIR A655sc thermal imaging camera at the same time before and after spraying.
Leaf transpiration experiments of soybean and cotton for compound 0720B were carried out at 26° C. with long-day lighting. 16 days and 23 days after sowing, a solution containing 0.1% tween-20 and corresponding concentration of (+)-ABA, or 0720B compound or 0.1% Tween-20 and 0.05% DMSO (control) was sprayed in an amount of 4 ml/pot. Images were taken daily using the FLIR A655sc thermal imaging camera at the same time before and after spraying.

soybean = experiment: Soil drought experiment, soybean; assay type: in vivo; conditions: 50 μM
Description: Only one plant was contained in each pot. All soybean plants were long-day cultured at 26° C. Watering was stopped after the plant had three leaves in each of three groups of leaves and the plants with consistent growth were selected for drought treatment. As for corn, watering was stopped during the small trumpet period for drought treatment. […] After a week, the watering was resumed. Soybeans and cotton used in leaf transpiration experiments for compound 0720B were also used for soil drought experiments. Each pot contained only one plant and was filled with the same weight of soil to reduce experimental errors. All of the soybean plants were grown at 26° C. for long-day culture. 16 days after seeding, watering was stopped and the plants with consistent growth were selected for drought treatment. […] Cotton drought experiments were similar to that of the soybean. 23 days after seeding, the watering was stopped, and the plants with consistent growth were selected for drought treatment. […] After 10 days of drought, the photos were taken.

[2] = test system: Chinese hamster lung cell (CHL); experiment: In vitro micronucleus experiment; assay type: cell-based; conditions: -S9; 24 hours
Description: The test substance used in the experiment was AMX compound 1127.
Firstly, CHL cells used in in vitro micronucleus test were tested in IC50 determination experiment. According to IC50 determination results, in vitro micronucleus test dosage was set. 4 doses of 1 μg/ml, 20 μg/ml, 30 μg/ml and 40 μg/ml were set in total, while a negative control and a positive control were also set. The CHL cells were treated for 24 hours under the condition of −S9 and sections were prepared.
The numbers of monocytes, binucleate cells and multinucleated cells in 500 cells per dose were counted and the cytokinesis-block proliferation index (CBPI) and cytotoxicity at each dose were calculated.

Kyoho grapes = experiment: Grape coloring experiment (anthocyanin content); assay type: in vivo; conditions: aqueous suspension; vs fresh water control
Description: The grapes used in the experiment were commercially available variety of Kyoho. According to weather conditions, during the color conversion period of grapes, the fruit ears with the same size and consistent growth were selected and soaked with a water suspension preparation containing 2000 mg/L, 1000 mg/L, 500 mg/L and 100 mg/L of 6% AMX compound 1127 for 10 seconds. Soaking in water was regarded as a control. Each experiment was repeated 10 times, each ear was regarded as a duplicate. Samples were collected after harvesting. Samples were collected from the upper, middle and lower parts of each ear in two directions, i.e., glossy and backlit, with 6 grains collected per ear. The samples were preserved in the laboratory at −20° C. for use.
30 pieces of pericarp were evenly taken from up and low portion around the equator of grape fruit by using a hole puncher with a diameter of 10 mm. After they were mixed well and weighed, the anthocyanin in the pericarp was determined. […] The content of anthocyanins (calculated as cornflower-3-glucoside equivalent) was determined by pH differential method and each treatment was repeated three times. Content of anthocyanins (mg/g) X=ΔA×F×M/ε×m, wherein ΔA was absorbance; F was fold of dilution; M is the relative molecular mass 449.2 of cyanidin-3-glucoside, ε is a molar extinction coefficient 26,900 for cyanidin-3-glucoside; m is sample mass.

CCCN1C(=O)CCc2cc(NS(=O)(=O)Cc3c(F)c(F)c(C)c(F)c3F)ccc21 [Compound 1127]
affinities for soybean GmPYL proteins compared with ABA [1]: significantly higher affinities
leaf temperature (soybean Williams 82): still significantly higher than that in the DMSO-sprayed control
growth (soybean; a week of drought, one month after rewatering): grew significantly better than the plants sprayed with DMSO (control) and sprayed with 50 μM ABA
survival rate (soybean; after rewatering): higher than that in the above two groups
micronuclei rate in CHL cells [2]: did not induce an increased micronuclei rate
content of anthocyanin in grapes peel (Kyoho grapes): significantly higher than that in the fresh water control group
